Key:
Experiment in all cases: relative viability (nuclei count vs DMSO), 5 days (fraction); higher = more cells survive
[1] = test system: NCI-H2087
In short: (§1)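 After 5 days of treatment, lung cancer cells in 1536-well plates were fixed and stained in a single step (final 0.05% Triton X-100, 1% formaldehyde, 1 ug/ml Hoechst) and their nuclei counted on 4× images. Treatment had been applied by pin tool the day after seeding as one drug alone or as a fixed anchor-drug dose with five library-drug doses (not always all listed) in √10 steps. Relative viability is the nuclei count of treated wells divided by that of vehicle wells, and values are medians of duplicate plates.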

[2] = test system: 201T
In short: as §1

[3] = test system: NCI-H1437
In short: as §1

[4] = test system: NCI-H1666
In short: as §1

[5] = test system: NCI-H2342
In short: as §1

[6] = test system: LCLC-97TM1
In short: as §1

[7] = test system: EKVX
In short: as §1

[8] = test system: EPLC-272H
In short: as §1

[9] = test system: HCC-827
In short: as §1

[10] = test system: LOU-NH91
In short: as §1

[11] = test system: COR-L 105
In short: as §1

[12] = test system: HCC-44
In short: as §1

[13] = test system: NCI-H358
In short: as §1

[14] = test system: LU99A
In short: as §1

[15] = test system: HOP-62
In short: as §1

[16] = test system: NCI-H647
In short: as §1

[17] = test system: NCI-H2085
In short: as §1

[18] = test system: H3255
In short: as §1

[19] = test system: NCI-H2126
In short: as §1

[20] = test system: NCI-H1395
In short: as §1

[21] = test system: PC-3 [JPC-3]
In short: as §1

[22] = test system: NCI-H1975
In short: as §1

[23] = test system: SW 1573
In short: as §1

[24] = test system: BEN
In short: as §1

## C[C@@H]1CN(CC(=O)Nc2ccc3c(c2)Cc2cccc(-c4cc(=O)cc(N5CCOCC5)o4)c2S3)C[C@H](C)O1 + CC(=O)Nc1cccc(-n2c(=O)n(C3CC3)c(=O)c3c(Nc4ccc(I)cc4F)n(C)c(=O)c(C)c32)c1 [Trametinib] (partner 0.02 µM)
[1]; first compound 0.04 µM
  relative viability: 0.248
[1]; first compound 0.1265 µM
  relative viability: 0.224
[1]; first compound 0.4 µM
  relative viability: 0.16
[1]; first compound 4 µM
  relative viability: 0.184
[2]; first compound 0.04 µM
  relative viability: 0.732
[2]; first compound 0.1265 µM
  relative viability: 0.728
[2]; first compound 0.4 µM
  relative viability: 0.675
[2]; first compound 4 µM
  relative viability: 0.739
[3]; first compound 0.04 µM
  relative viability: 0.47
[3]; first compound 0.1265 µM
  relative viability: 0.467
[3]; first compound 0.4 µM
  relative viability: 0.506
[3]; first compound 4 µM
  relative viability: 0.369
[4]; first compound 0.04 µM
  relative viability: 0.881
[4]; first compound 0.1265 µM
  relative viability: 0.924
[4]; first compound 0.4 µM
  relative viability: 0.91
[4]; first compound 4 µM
  relative viability: 0.738
[5]; first compound 0.04 µM
  relative viability: 0.806
[5]; first compound 0.1265 µM
  relative viability: 0.743
[5]; first compound 0.4 µM
  relative viability: 0.818
[5]; first compound 4 µM
  relative viability: 0.721
[6]; first compound 0.1265 µM
  relative viability: 0.165
[6]; first compound 0.4 µM
  relative viability: 0.165
[6]; first compound 4 µM
  relative viability: 0.175
[7]; first compound 0.04 µM
  relative viability: 0.364
[7]; first compound 0.1265 µM
  relative viability: 0.369
[7]; first compound 0.4 µM
  relative viability: 0.349
[7]; first compound 4 µM
  relative viability: 0.294
[8]; first compound 0.04 µM
  relative viability: 0.281
[8]; first compound 0.1265 µM
  relative viability: 0.289
[8]; first compound 0.4 µM
  relative viability: 0.281
[8]; first compound 4 µM
  relative viability: 0.263
[9]; first compound 0.04 µM
  relative viability: 0.541
[9]; first compound 0.1265 µM
  relative viability: 0.51
[9]; first compound 0.4 µM
  relative viability: 0.491
[9]; first compound 4 µM
  relative viability: 0.513
[10]; first compound 0.04 µM
  relative viability: 0.812
[10]; first compound 0.1265 µM
  relative viability: 0.788
[10]; first compound 0.4 µM
  relative viability: 0.717
[10]; first compound 4 µM
  relative viability: 0.715
[11]; first compound 0.04 µM
  relative viability: 0.458
[11]; first compound 0.1265 µM
  relative viability: 0.412
[11]; first compound 0.4 µM
  relative viability: 0.416
[11]; first compound 4 µM
  relative viability: 0.428
[12]; first compound 0.04 µM
  relative viability: 1.05
[12]; first compound 0.1265 µM
  relative viability: 1.03
[12]; first compound 0.4 µM
  relative viability: 1.1
[12]; first compound 4 µM
  relative viability: 1.03
[13]; first compound 0.04 µM
  relative viability: 0.131
[13]; first compound 0.1265 µM
  relative viability: 0.121
[13]; first compound 0.4 µM
  relative viability: 0.12
[13]; first compound 4 µM
  relative viability: 0.112
[14]; first compound 0.04 µM
  relative viability: 0.508
[14]; first compound 0.1265 µM
  relative viability: 0.534
[14]; first compound 0.4 µM
  relative viability: 0.587
[14]; first compound 4 µM
  relative viability: 0.59
[15]; first compound 0.04 µM
  relative viability: 0.4
[15]; first compound 0.1265 µM
  relative viability: 0.374
[15]; first compound 0.4 µM
  relative viability: 0.297
[15]; first compound 4 µM
  relative viability: 0.313
[16]; first compound 0.04 µM
  relative viability: 0.565
[16]; first compound 0.1265 µM
  relative viability: 0.415
[16]; first compound 0.4 µM
  relative viability: 0.414
[16]; first compound 4 µM
  relative viability: 0.251
[17]; first compound 0.04 µM
  relative viability: 0.51
[17]; first compound 0.1265 µM
  relative viability: 0.532
[17]; first compound 0.4 µM
  relative viability: 0.483
[17]; first compound 4 µM
  relative viability: 0.465
[18]; first compound 0.04 µM
  relative viability: 0.584
[18]; first compound 0.1265 µM
  relative viability: 0.601
[18]; first compound 0.4 µM
  relative viability: 0.473
[18]; first compound 4 µM
  relative viability: 0.437
[19]; first compound 0.04 µM
  relative viability: 0.558
[19]; first compound 0.1265 µM
  relative viability: 0.573
[19]; first compound 0.4 µM
  relative viability: 0.561
[19]; first compound 4 µM
  relative viability: 0.557
[20]; first compound 0.1265 µM
  relative viability: 1.11
[20]; first compound 0.4 µM
  relative viability: 0.824
[20]; first compound 4 µM
  relative viability: 0.97
[21]; first compound 0.04 µM
  relative viability: 0.808
[21]; first compound 0.1265 µM
  relative viability: 0.665
[21]; first compound 0.4 µM
  relative viability: 0.666
[21]; first compound 4 µM
  relative viability: 0.634
[22]; first compound 0.04 µM
  relative viability: 0.382
[22]; first compound 0.1265 µM
  relative viability: 0.377
[22]; first compound 0.4 µM
  relative viability: 0.37
[22]; first compound 4 µM
  relative viability: 0.33
[23]; first compound 0.04 µM
  relative viability: 0.646
[23]; first compound 0.1265 µM
  relative viability: 0.564
[23]; first compound 0.4 µM
  relative viability: 0.572
[23]; first compound 4 µM
  relative viability: 0.627
[24]; first compound 0.04 µM
  relative viability: 0.972
[24]; first compound 0.1265 µM
  relative viability: 0.99
[24]; first compound 0.4 µM
  relative viability: 1.14
[24]; first compound 4 µM
  relative viability: 1.03
